The subject of this assay is SW620 Cell Lines. Nature of the assay: Cell proliferation / cytotoxicity assay (CellTiter-Glo 2.0). It counts as cell-based. To be noted: Homo sapiens, SW-620; 72 hours incubation, luminescence (CellTiter-Glo 2.0), 2-fold dilutions starting at 50 μM. On the procedure:
Compounds are assayed for inhibition of cell proliferation and killing cancer cells. Cytotoxicity assays are conducted according to the following general procedure. […] cells (ATCC CCL-227) are maintained in DMEM Low Glucose (Corning 10-014-CV) media supplemented with 10% fetal bovine serum and 1% PenStrep and grown at 37° C. in 5% CO2. Cells are plated into 96 well flat bottom plates (2 million/plate, ˜20,000/well, 200 μL media/well). The cells are allowed to settle and adhere to the plate bottom overnight. Compounds are diluted in media from a 10 mM stock solution starting at 50 μM, using 2-fold dilutions, in a column in a 96-well plate. Media is removed from the plate containing cells and replaced with media containing diluted compounds. Plates are incubated 72 hours at 37° C. in 5% CO2. Plates are allowed to come to room temperature and 100 μL CellTiter-Glo 2.0 reagent (Promega, G924C) is added at room temperature. Plates are shaken for 2 minutes, then allowed to stand for 15 minutes. Luminescence is read with FLx800 (BioTek Instruments). Data is plotted with GraphPad Prizm 8.0.
Background: Cellular ATP, detected with luciferase, serves as a proxy for viable cell number.

The record followed here is patent publication US12180220B2, “Heteroaryl modulators of RAS GTPase” (Tosk, Inc., priority 2020, dated 2024).

As usually defined, the IC50 is the point on the concentration scale where inhibition reaches its midpoint. Higher therefore signals a need for much substance. As to `Cc1nc(N[C@@H]2CCN(C(=O)OC(C)(C)C)[C@@H](C)C2)nc2ccc(-c3ccnc4c3OCCO4)cc12` [Compound 1A], the IC50 was < 5 µM.
Consider `Cc1nc(NC2CCC(C(=O)NCc3ccc(Cl)cc3)CC2)nc2ccc(-c3cccc4c3OCCO4)cc12` (stereo not shown) [Compound 1B], for which the IC50 was in the range of 5 to 10 µM.
As to `Cc1ccc2ccc(F)c(-c3ccc4nc(NC5CCN(C(=O)OC(C)(C)C)CC5)nc(C)c4c3)c2n1` [Compound 1C], the IC50 was < 5 µM.
The value for `Cc1nc(N[C@@H]2CCN(C(=O)OC(C)(C)C)[C@H](C)C2)nc2ccc(-c3ccnc4c3OCCO4)cc12` [Compound 2A] was < 5 µM.
The value for `Cc1nc(N[C@H]2CC[C@@H](C(=O)NC3CCCCC3)CC2)nc2ccc(-c3cccc4c3OCCO4)cc12` [Compound 2B] was 5 to 10 µM; that for `Cc1ccc2ccc(F)c(-c3ccc4nc(NC5CCN(C(=O)OC(C)C)CC5)nc(C)c4c3)c2n1` [Compound 2C] was 5 to 10 µM; that for `Cc1nc(N[C@H]2CC[C@@H](NC(=O)OC(C)(C)C)CC2)nc2ccc(-c3ccnc4c3OCCO4)cc12` [Compound 3A] was < 5 µM.
The value for `Cc1nc(N[C@H]2CC[C@@H](C(=O)NC(C)C)CC2)nc2ccc(-c3cccc4c3OCCO4)cc12` [Compound 3B] was 5 to 10 µM.
`Cc1nc(N[C@H]2CC[C@H](NC(=O)OC(C)(C)C)CC2)nc2ccc(-c3ccnc4c3OCCO4)cc12` [Compound 4A]: the IC50 was < 5 µM.
The molecule `Cc1nc(NC2CCN(C(=O)OC(C)(C)C)CC2)nc2ccc(-c3ccnc4ccccc34)cc12` [Compound 4C] displayed an IC50 of 5 to 10 µM.
The value for `Cc1nc(N[C@H]2C[C@@H](NC(=O)OC(C)(C)C)C2)nc2ccc(-c3ccnc4c3OCCO4)cc12` [Compound 5A] was < 5 µM.
The molecule `Cc1nc(NC2CCN(C(=O)OC(C)(C)C)CC2)nc2ccc(-c3cccc4c3CCCC4)cc12` [Compound 5B] displayed an IC50 of 5 to 10 µM.
The value for `Cc1ccc2ccc(F)c(-c3ccc4nc(N[C@H]5CC[C@@H](NC(=O)OC(C)(C)C)CC5)nc(C)c4c3)c2n1` [Compound 5C] was 5 to 10 µM; that for `Cc1nc(N[C@H]2C[C@H](NC(=O)OC(C)(C)C)C2)nc2ccc(-c3ccnc4c3OCCO4)cc12` [Compound 6A] was < 5 µM; that for `Cc1nc(N[C@H]2CC[C@@H](NC(=O)OC(C)(C)C)CC2)nc2ccc(-c3cccc4c3CCCC4)cc12` [Compound 6B] was 5 to 10 µM.
The figure for `Cc1nc(O[C@H]2CC[C@@H](NC(=O)OC(C)(C)C)CC2)nc2ccc(-c3ccnc4c3OCCO4)cc12` [Compound 7A] is < 5 µM.
In turn, `Cc1nc(N[C@H]2CC[C@H](NC(=O)OC(C)(C)C)CC2)nc2ccc(-c3cccc4c3CCCC4)cc12` [Compound 7B] returned an IC50 of 5 to 10 µM.
Molecule `Cc1nc(N[C@H]2CC[C@@H](NC(=O)OC(C)(C)C)CC2)nc2ccc(-c3cccc4c3OCC(=O)N4)cc12` [Compound 7C] showed an IC50 of 5 to 10 µM.
`Cc1nc(N[C@H]2CC[C@@H](NC(=O)c3ccc(Cl)cc3)CC2)nc2ccc(-c3ccnc4c3OCCO4)cc12` [Compound 8A]: the IC50 was < 5 µM.
In the case of `Cc1nc(N[C@@H]2C[C@H]3CC[C@@H](C2)N3C(=O)c2ccc(Cl)cc2)nc2ccc(-c3ccnc4c3OCCO4)cc12` [Compound 8C], the IC50 is < 5 µM.
Consider `Cc1nc(N[C@H]2CC[C@@H](NC(=O)OC(C)(C)C)CC2)nc2ccc(-c3ccnc4c3OCCO4)c(F)c12` [Compound 9A], for which the IC50 is < 5 µM.
The figure for `Cc1nc(N[C@H]2CC[C@@H](NC(=O)OC(C)(C)C)CC2)nc2ccc(-c3c(Cl)cnc4c3OCCO4)cc12` [Compound 10A] is < 5 µM.
For `Cc1nc(N[C@H]2CCC[C@@H](NC(=O)OC(C)(C)C)C2)nc2ccc(-c3ccnc4c3OCCO4)cc12` [Compound 11A], the half-inhibitory concentration (IC50) is < 5 µM.
The figure for `Cc1nc(N[C@H]2CC[C@@H](NC(=O)OC(C)(C)C)CC2)nc2ccc(-c3cc[n+]([O-])c4c3OCCO4)cc12` [Compound 12A] is 5 to 10 µM.
With `Cc1nc(NC2CCN(Cc3ccc(Cl)cc3)CC2)nc2ccc(-c3ccnc4c3OCCO4)cc12` [Compound 13A], the IC50 was < 5 µM.
The figure for `Cc1nc(NC2CCN(C(=O)c3ccc(Cl)cc3)CC2)nc2ccc(-c3ccnc4c3OCCO4)cc12` [Compound 14A] is < 5 µM; for `Cc1nc(N[C@H]2CCN(Cc3ccc(Cl)cc3)[C@@H](C)C2)nc2ccc(-c3ccnc4c3OCCO4)cc12` [Compound 15A] it is < 5 µM; for `Cc1nc(N[C@H]2CC[C@@H](NC3Cc4cccc(Cl)c4C3)CC2)nc2ccc(-c3ccnc4c3OCCO4)cc12` (stereo partly shown) [Compound 16A] it is < 5 µM.
